Structures can show the parent of a compound that is named as a salt. Where two headings read alike, the source gives them in different places.
What was measured:
[1] = system: papillary muscle preparation; experiment: Isolated, blood-perfused papillary muscle preparation, developed tension (Table 1); set-up: species or system Mongrel dogs; conditions: Canis lupus familiaris, close-arterial injection, read-out: Papillary muscle preparation, % increase in developed tension; for activation at 0.03 mg: dose 30 μg; for activation at 0.1 mg: dose 100 μg; for activation at 0.3 mg: dose 300 μg
Method: Mongrel dogs of either sex weighting 7.5-10 kg were anesthetized with sodium pentobarbital (30 mg/kg, i.v.). Each animal was given an intravenous dose of sodium heparin (500 units/kg), thereafter, the heart was removed and placed in cold Tyrode solution. The isolated and cross-circulated right atrium and papillary muscle preparations were arranged for perfusion from a donor dog as follows. The donor dog was also anesthetized with sodium pentobarbital (30 mg/kg, i.v.); heparin (500 units/kg) was given intravenously immediately before the perfusion began. (a) The isolated, blood-perfused papillary muscle preparation. The anterior septal artery was dissected and cannulated with polyethylene tubing. The tendinous end of the papillary muscle was connected to a strain-gauge transducer by a fine silk thread and the muscles were under about 2 g of resting tension. The papillary muscle preparation was electrically driven at a constant frequency of 120/min with rectangular pulses of 1-3 V and 5 msec duration. The preparation of the blood-perfused papillary muscle has been described in detail by Endoh and Hashimoto Am. J. Physiol, 218, 1459-1463 (1970). Each preparation was perfused with the arterial blood from the carotid artery of the donor dog at a constant perfusion pressure of 100 mmHg by means of a peristaltic pump. The venous effluent from the preparations was collected in a reservoir and returned to the donor dog through the jugular vein. Test compounds used in these experiments were dissolved in vehicle solution and were injected closearterially to the preparations. The effects of each compound on the developed tension and sinuo rate were evaluated as a percentage change in values determined before and after administration of the compound. In Table 1 are shown such changes in terms of the percentage increase after administration.

[2] = system: anesthetized open-chest dogs; experiment: Cardiovascular effect in anesthetized open-chest dogs (Table 2); type: in vivo, Mongrel dogs; conditions: femoral vein; for change in vivo at 0.03 mg/kg / change in vivo at 0.1 mg/kg / change in vivo at 0.3 mg/kg / change in vivo at 0.01 mg/kg: Canis lupus familiaris, iv
Method: Mongrel dogs of either sex weighing 9-15 kg were anesthetized with sodium pentobarbital (30 mg/kg, i.v.). The heart was exposed by thoractomy by the left fifth intercostal incision under artificial respiration. Aortic flow was measured by the probe of electromagnetic flowmeter placed around the ascending aorta. Myocardial contractility was measured by the maximal rate of rise of left ventricular pressure which was recorded from a needle inserted into the ventricular cavity. The systemic blood pressure was measured with a pressure transducer by means of a polyethylene cannular inserted into the femoral artery. The heart rate was recorded by a cardiotrachometer triggered by R wave of electrocargiogram (Lead II). Test compounds were dissolved in vehicle solution and were injected into the femoral vein. The effects of each compound on the cardiac contractility and aortic flow were evaluated as a percentage change in values determined before and after administration of the compound. In Table 2 are shown such changes in terms of the percentage increase after administration.

right atrium preparation = experiment: Isolated, blood-perfused right atrium preparation, sinus rate (Table 1); set-up: species or system Mongrel dogs; conditions: Canis lupus familiaris, close-arterial injection, read-out: Right atrium preparation; for activation at 0.03 mg: dose 30 μg; for activation at 0.03 mg / activation at 0.1 mg / activation at 0.3 mg: % increase in sinus rate; for activation at 0.3 mg: dose 300 μg
Method: Mongrel dogs of either sex weighting 7.5-10 kg were anesthetized with sodium pentobarbital (30 mg/kg, i.v.). Each animal was given an intravenous dose of sodium heparin (500 units/kg), thereafter, the heart was removed and placed in cold Tyrode solution. The isolated and cross-circulated right atrium and papillary muscle preparations were arranged for perfusion from a donor dog as follows. The donor dog was also anesthetized with sodium pentobarbital (30 mg/kg, i.v.); heparin (500 units/kg) was given intravenously immediately before the perfusion began. (b) The isolated, blood-perfused right atrium preparation. The sinus node artery was cannulated at its origin in the right coronary artery. A right atrial electrogram was obtained from bipolar electrodes which were placed in close proximity to the sinoatrial node. The sinus rate was recorded by a cardiotachometer triggered by the right atrial electrogram. The details of the bloodperfused right atrium preparation have been described by Chiba et al. (Tohoku J. exp. Med., 107, 101-102 (1972) and Kubota and Hashimoto (Naunyn-Schmiedeberg's Arch. Pharmacol., 278, 135-150 (1973)). Each preparation was perfused with the arterial blood from the carotid artery of the donor dog at a constant perfusion pressure of 100 mmHg by means of a peristaltic pump. The venous effluent from the preparations was collected in a reservoir and returned to the donor dog through the jugular vein. Test compounds used in these experiments were dissolved in vehicle solution and were injected closearterially to the preparations. The effects of each compound on the developed tension and sinuo rate were evaluated as a percentage change in values determined before and after administration of the compound. In Table 1 are shown such changes in terms of the percentage increase after administration.

[3] = 0.03 mg/kg, read-out: Increase in aortic flow (%)
[4] = 0.03 mg/kg, read-out: Increase in cardiac contractility (%)
[5] = 0.1 mg/kg, read-out: Increase in aortic flow (%)
[6] = 0.1 mg/kg, read-out: Increase in cardiac contractility (%)
[7] = 0.3 mg/kg, read-out: Increase in aortic flow (%)
[8] = 0.3 mg/kg, read-out: Increase in cardiac contractility (%)

CNC(=N)c1ccc(OCc2ccc(C=CCN)cc2)c(C(=O)c2ccccc2)c1 [Compound 12, 4-[4-(3-amino-1-propenyl)benzyloxy]-3-benzoyl-N-methylbenzamidine dihydrochloride]
activation at 0.03 mg [1]: 46.2% | activation at 0.1 mg [1]: 77.8% | change in vivo at 0.03 mg/kg [2, 3]: 6.1% | change in vivo at 0.03 mg/kg [2, 4]: 18.8% | change in vivo at 0.1 mg/kg [2, 5]: 8.7% | change in vivo at 0.1 mg/kg [2, 6]: 40% | activation at 0.03 mg (right atrium preparation): 23.3% | activation at 0.1 mg (right atrium preparation; dose 100 μg): 31.6%

CNC(=N)c1ccc(CCc2ccc(CN)cc2)cc1 [Compound 1, 4-[2-(4-aminomethylphenyl)ethyl]-N-methylbenzamidine dihydrochloride]
activation at 0.03 mg [1]: 44.1% | activation at 0.1 mg [1]: 78.1% | change in vivo at 0.1 mg/kg [2, 5]: 30.4% | change in vivo at 0.1 mg/kg [2, 6]: 42.1% | change in vivo at 0.3 mg/kg [2, 7]: 38.8% | change in vivo at 0.3 mg/kg [2, 8]: 57.5% | activation at 0.03 mg (right atrium preparation): 26.2% | activation at 0.1 mg (right atrium preparation; dose 100 μg): 34.1%

COc1cc(CN)ccc1CCc1ccc(C2=NCCN2)cc1 [Compound 20, 2-{4-[2-(4-Aminomethyl-2-methoxyphenyl)ethyl]phenyl}imidazoline dihydrochloride]
activation at 0.1 mg [1]: 72.2% | activation at 0.3 mg [1]: 104% | % decrease in aortic flow (in parentheses) ([2]; 0.03 mg/kg): -1.1% | % decrease in cardiac contractility (in parentheses) ([2]; 0.03 mg/kg): -7.8% | change in vivo at 0.03 mg/kg [2, 3]: 7.9% | change in vivo at 0.03 mg/kg [2, 4]: 78.6% | activation at 0.1 mg (right atrium preparation; dose 100 μg): 26.8% | activation at 0.3 mg (right atrium preparation): 45.7%

CN=C(NC)c1ccc(CCc2ccc(CN)cc2OC)cc1 [Compound 17, 4-[2-(4-Aminomethyl-2-methoxyphenyl)ethyl]-N,N'-dimethylbenzamidine dihydrochloride]
activation at 0.1 mg [1]: 76.5% | activation at 0.3 mg [1]: 110% | change in vivo at 0.03 mg/kg [2, 3]: 4.7% | change in vivo at 0.03 mg/kg [2, 4]: 13.5% | change in vivo at 0.1 mg/kg [2, 5]: 17% | change in vivo at 0.1 mg/kg [2, 6]: 76.5% | activation at 0.1 mg (right atrium preparation; dose 100 μg): 14.3% | activation at 0.3 mg (right atrium preparation): 20.3%

CNC(=N)c1ccc(CCc2ccc(CN)cc2OC)cc1 [Compound 3, 4-[2-(4-Aminomethyl-2-methoxyphenyl)ethyl]-N-methylbenzamidine dihydrochloride]
activation at 0.03 mg [1]: 73.3% | activation at 0.1 mg [1]: 115% | change in vivo at 0.01 mg/kg ([2]; read-out: Increase in aortic flow (%)): 4.1% | change in vivo at 0.01 mg/kg ([2]; read-out: Increase in cardiac contractility (%)): 14% | change in vivo at 0.03 mg/kg [2, 3]: 21.7% | change in vivo at 0.03 mg/kg [2, 4]: 24.6% | activation at 0.03 mg (right atrium preparation): 17.9% | activation at 0.1 mg (right atrium preparation; dose 100 μg): 32.5%

N=C(NCCc1ccccn1)c1ccc(CCc2ccc(CN)cc2)cc1 [Compound 6, 4-[2-(4-Aminomethylphenyl)ethyl]-N-[2-(2-pyridyl)ethyl]benzamidine trihydrochloride]
activation at 0.1 mg [1]: 57.7% | activation at 0.3 mg [1]: 93.5% | change in vivo at 0.03 mg/kg [2, 3]: 1.8% | change in vivo at 0.03 mg/kg [2, 4]: 5.2% | change in vivo at 0.1 mg/kg [2, 5]: 6.5% | change in vivo at 0.1 mg/kg [2, 6]: 18% | activation at 0.1 mg (right atrium preparation; dose 100 μg): 7.5% | activation at 0.3 mg (right atrium preparation): 18.3%

CC(=O)O.N=C(N)c1ccc(OCc2ccc(CN)cc2)c(C(=O)c2ccccc2)c1 [Compound 9, 4-(4-Aminomethylbenzyloxy)-3-benzoylbenzamidine acetate]
activation at 0.1 mg [1]: 52.2% | activation at 0.3 mg [1]: 71.7% | % decrease in aortic flow (in parentheses) ([2]; 0.1 mg/kg): -7.9% | % decrease in cardiac contractility (in parentheses) ([2]; 0.1 mg/kg): -7.1% | change in vivo at 0.1 mg/kg [2, 5]: 3.9% | change in vivo at 0.1 mg/kg [2, 6]: 12.5% | activation at 0.1 mg (right atrium preparation; dose 100 μg): 15.5% | activation at 0.3 mg (right atrium preparation): 24.3%

CN=C(NC)c1ccc(CCc2ccc(CN)cc2[N+](=O)[O-])cc1.Cl.Cl [Compound 18, 4-[2-(4-Aminomethyl-2-nitrophenyl)ethyl]-N,N'-dimethylbenzamidine dihydrochloride]
activation at 0.1 mg [1]: 64% | activation at 0.3 mg [1]: 86.5% | % decrease in aortic flow (in parentheses) ([2]; 0.3 mg/kg): -5.3% | change in vivo at 0.1 mg/kg [2, 5]: 14.3% | change in vivo at 0.1 mg/kg [2, 6]: 59.3% | change in vivo at 0.3 mg/kg [2, 7]: 23.7% | change in vivo at 0.3 mg/kg [2, 8]: 155% | inhibition at 0.1 mg (right atrium preparation; dose 100 μg, % decrease in sinus rate (in parentheses)): 1.8% | activation at 0.1 mg (right atrium preparation; dose 100 μg): 14% | activation at 0.3 mg (right atrium preparation): 34.8%

Br.Br.CN=C(NC)c1ccc(CCc2ccc(CN)cc2)cc1 [Compound 14, N,N'-Dimethyl-4-[2-(4-aminomethylphenyl)ethyl]benzamidine dihydrobromide]
activation at 0.03 mg [1]: 59% | activation at 0.1 mg [1]: 100% | % decrease in aortic flow (in parentheses) ([2]; 0.3 mg/kg): -16.3% | % decrease in cardiac contractility (in parentheses) ([2]; 0.3 mg/kg): -6.8% | change in vivo at 0.1 mg/kg [2, 5]: 8.7% | change in vivo at 0.1 mg/kg [2, 6]: 30% | change in vivo at 0.3 mg/kg [2, 7]: 32.7% | change in vivo at 0.3 mg/kg [2, 8]: 47.5% | activation at 0.03 mg (right atrium preparation): 28.9% | activation at 0.1 mg (right atrium preparation; dose 100 μg): 31.8%

CNC(=N)c1ccc(CCc2ccc(CN)cc2[N+](=O)[O-])cc1 [Compound 13, N-Methyl-4-[2-(4-aminomethyl-2-nitrophenyl)ethyl]benzamidine dihydrochloride]
activation at 0.03 mg [1]: 64.2% | activation at 0.1 mg [1]: 95.5% | change in vivo at 0.03 mg/kg [2, 3]: 5.7% | change in vivo at 0.03 mg/kg [2, 4]: 29% | change in vivo at 0.1 mg/kg [2, 5]: 12.1% | change in vivo at 0.1 mg/kg [2, 6]: 66.7% | activation at 0.03 mg (right atrium preparation): 32.3% | activation at 0.1 mg (right atrium preparation; dose 100 μg): 35.9%

CNC(=N)c1ccc(CCc2ccc(CN)cc2)c([N+](=O)[O-])c1.Cl.Cl [Compound 16, 4-[2-(4-Aminomethylphenyl)ethyl]-N-methyl-3-nitrobenzamidine dihydrochloride]
activation at 0.03 mg [1]: 26% | activation at 0.1 mg [1]: 70.2% | % decrease in aortic flow (in parentheses) ([2]; 0.3 mg/kg): -7.0% | change in vivo at 0.1 mg/kg [2, 5]: 9% | change in vivo at 0.1 mg/kg [2, 6]: 32% | change in vivo at 0.3 mg/kg [2, 7]: 16.3% | change in vivo at 0.3 mg/kg [2, 8]: 69.4% | activation at 0.03 mg (right atrium preparation): 21.9% | activation at 0.1 mg (right atrium preparation; dose 100 μg): 29.7%

N=C(N)c1ccc(OCc2ccc(CCCN)cc2)c(C(=O)c2ccccc2)c1 [Compound 11, 4-[4-(3-Aminopropyl)benzyloxy]-3-benzoylbenzamidine dihydrochloride]
activation at 0.03 mg [1]: 48.8% | activation at 0.1 mg [1]: 82.5% | change in vivo at 0.1 mg/kg [2, 5]: 7.5% | change in vivo at 0.1 mg/kg [2, 6]: 14.3% | activation at 0.03 mg (right atrium preparation): 32% | activation at 0.1 mg (right atrium preparation; dose 100 μg): 71.4%

CCCCNC(=N)c1ccc(CCc2ccc(CN)cc2)cc1.Cl.Cl [Compound 4, 4-[2-(4-Aminomethylphenyl)ethyl]-N-n-butyl-benzamidine dihydrochloride]
activation at 0.03 mg [1]: 45.8% | activation at 0.1 mg [1]: 76.5% | % decrease in cardiac contractility (in parentheses) ([2]; 0.3 mg/kg): -3.4% | change in vivo at 0.1 mg/kg [2, 5]: 20% | change in vivo at 0.1 mg/kg [2, 6]: 26.1% | change in vivo at 0.3 mg/kg [2, 7]: 50% | change in vivo at 0.3 mg/kg [2, 8]: 52.9% | activation at 0.03 mg (right atrium preparation): 19% | activation at 0.1 mg (right atrium preparation; dose 100 μg): 30.6%

Source: patent publication US4598077A, “Amidine derivatives and cardiotonic compositions” (Torii & Co. Ltd., priority 1983, dated 1986)
